Legend:
THP-1 cell line = assay: Pooled two-target microfluidic screen: Fura red fluorescence response of THP-1 cells; type: cell-based; settings: pooled with CHO-M1 cells, microfluidic channel, blue excitation light, FIG. 6C-6D
Experimental: (§1) A THP-1 cell line was labeled with Fura red. Both cell lines were pooled and introduced into microfluidic device having the channel structure illustrated in FIG. 5. The cells were flowed through the main channel of the device past a detector that excited the cells with blue excitation light. Green fluorescence was analyzed from the Fluo-4 labeled CHO cells to measure their response to the test compounds. The measurement of the different fluorescence was accomplished simultaneously through the use of appropriate beam splitters and filters in the optical train of the detector. Similarly, red fluorescence was measured from the Fura-red labeled THP-1 cells to measure their response. […] Similarly, different concentrations of UTP were also contacted with the cells flowing through the channel and the results for each system were plotted (FIG. 6C-D).

[1] = tested on: CHO cell line expressing the M1 muscarinic receptor; assay: Pooled two-target microfluidic screen: Fluo-4 green fluorescence response of CHO-M1 cells; type: cell-based; settings: pooled with THP-1 cells, microfluidic channel, blue excitation light, FIG. 6
Experimental: as §1

O=c1ccn([C@@H]2O[C@H](COP(=O)(O)OP(=O)(O)OP(=O)(O)O)[C@@H](O)[C@H]2O)c(=O)[nH]1 [UTP]
red fluorescence response of Fura-red labeled THP-1 cells to different concentrations of test compound (THP-1 cell line): dose dependent response
green fluorescence response of Fluo-4 labeled CHO-M1 cells to different concentrations of test compound [1]: dose dependent response
